Experimental data reported in publication PMC11009625, “Antibiotic class with potent in vivo activity targeting lipopolysaccharide synthesis in Gram-negative bacteria” (Proceedings of the National Academy of Sciences of the …, 2024).
In brackets after ≈: the same amount, converted by molar mass. Where two headings read alike, the source gives them in different places.

What was measured:
[1] = test system: A. baumanii BM4454 and efflux-defective BM4652; assay: MIC, A. baumannii laboratory strains; format: cell-based; settings: Acinetobacter baumannii
Experimental: (§1) Minimum inhibitory concentration (MIC) values were determined according to the Clinical Laboratory Standards Institute guidelines. Frequency of resistance was determined by plating ~5 × 10^8 bacterial cells on agar-solidified media plates containing test compound at concentrations corresponding to four times the measured solid-media MIC of the strains. Colonies were counted after 24 h, restreaked onto media containing the same concentration of compound, and the MIC remeasured against the assayed compound. Genomic DNA from isolated clones was sequenced by paired-end sequencing on an Illumina MiSeq device. Complete experimental details available in SI Appendix. […]
Minimum inhibitory concentration (MIC) determination. Broth microdilution and agar dilution
MIC assays were conducted according to CLSI guidelines (M07-2012). Appropriate inoculation
suspension density was assessed using a Sensititre Nephelometer with a Sensititre 0.5
McFarland Standard. Serum MICs were conducted in 50% heat-inactivated pooled human

[2] = test system: E. coli EC 106-09 (EN122); assay: Neutropenic mouse peritonitis model, E. coli; format: in vivo, mice; settings: single sc dose, modeled efficacy curves; for ED50: Escherichia coli
Experimental: PK and safety studies were done the Latvian Institute for Organic Synthesis (Riga, Latvia) and in vivo efficacy studies were done at Statens Serum Institut (Copenhagen, Denmark). Assays were done in accordance with the relevant permits at the respective sites (SI Appendix). For PK studies, plasma samples were taken from mice dosed subcutaneously and the samples were analyzed by UPLC/MS/MS. For in vivo efficacy studies, neutropenic mice were infected intraperitoneally with 10^6 bacteria and treated with subcutaneously with test compounds 1 h after infection. The mice were euthanized 4 h after treatment and serially diluted samples of blood and peritoneal fluid were plated onto blood agar plates. Complete experimental details available in SI Appendix.
Lantmännen) and water. The experimental procedures were performed in accordance with the guidelines of the European Community and local laws and policies (Directive 2010/63/EU), and all of the procedures were approved by Food and Veterinary Service, Riga, Latvia. […]
Bacterial strains and inoculum. E. coli EC 106-09 (EN122) and K. pneumoniae SSI #3010 (EN124) are clinical isolates from Denmark. Bacterial suspensions for inoculation of mice were prepared […]
at room temperature from fresh overnight cultures on 5% blood agar plates produced by SSI diagnostica (Copenhagen Denmark). The inoculum was prepared immediately before inoculation by suspending colonies in sterile 0.9% saline to an optical density of 0.13 at 540 nm, giving a density of 10^8 CFU/ml and further diluted in 0.9% saline to 2 x 10^6 CFU/ml before injecting into the mice. For each experiment, the size of the inoculum was determined by making ten-fold dilutions in 0.9% saline, of which 20 µl was plated on 5% blood agar plates with subsequent counting of colonies after incubation overnight at 35°C in ambient air.
Mice. Outbred female CD-1 mice 26-30 gram (Envigo, Netherlands) were housed at the animal facility at Statens Serum Institut. The temperature was 22 °C +/- 2 °C and the humidity was 55 +/- 10%. The mice were housed in individually ventilated type 3 macrolone cages with bedding from Tapvei. The air changes per hour were approximately 8-12 times (70-73 times per hours inside cages), and light/dark period was in 12-hours interval of 6 a.m.- 6 p.m./6 p.m – 6 a.m.
The mice had ad libitum access to domestic quality drinking water and food Teklad Global diet 2916C-Envigo) and occasionally peanuts and sunflower seeds (Køge Korn A/S). Further, the animals were offered Enviro-Dri nesting material and cardboard houses (Bio-serv).
Mouse peritonitis model. The mice were rendered neutropenic by injecting 0.5 mL cyclophosphamide solution, 200 mg/kg intraperitoneally at 4 days and 100 mg/kg at 1 day prior to inoculation. 1 h before inoculation, mice were treated orally with […] Nurofen (20 mg ibuprofen/mL corresponding to approximately 30 mg/kg) as a pain relief. Inoculation was performed by intraperitoneal injection of 0.5 ml of the bacterial suspension containing log 6
CFU. The mice were treated subcutaneously with 0.25 – 0.30 mL based on weight, in the neck region with a single dose of compound at 1 hour post inoculation. Mice were monitored for clinical signs of discomfort. 4 h after treatment the mice were anesthetized and blood was collected by heart puncture into EDTA tubes and thereafter mice were euthanized by cervical dislocation and peritoneal washes were performed by injecting 2 ml of sterile saline intraperitoneally, followed by gentle massage of the abdomen and opening the peritoneum to collect fluid. Full blood and peritoneal fluids were serially diluted (ten-fold dilutions) and 20 µl was plated on blood agar plates produced at the SSI diagniostica (Copenhagen, Denmark) with subsequent counting of colonies after incubation overnight at 35°C in ambient. All animal experiments were approved by the National Committee of Animal Ethics – Animal Experiment Inspectorate under the Danish Ministry of Justice.
Statistical analyses. […]

K. pneumoniae ATCC 13883 = assay: Frequency of resistance and agar MIC, K. pneumoniae; format: cell-based; settings: Klebsiella pneumoniae, ATCC13883, read-out: Agar MIC K. pneumoniae ATCC 13883
Experimental: as §1
Minimum inhibitory concentration (MIC) determination. […] Appropriate inoculation suspension density was assessed using a Sensititre Nephelometer with a Sensititre 0.5 […]
Frequency of Resistance. Frequency of resistance was assessed by spread plating between […] cfu of a freshly-grown culture of the strain of interest on plates containing a concentration of compound corresponding to 4 times the MIC of the strain (as determined by agar-dilution MIC). […] The frequency of resistance was determined by dividing the number of colonies obtained on the selective plates after 24 hours of growth by the calculated total population plated. […]

PaLpxH = PaLpxH enzyme inhibition compared to EcLpxH; format: biochemical, P. aeruginosa; settings: PaLpxH vs EcLpxH
[3] = test system: clinical K. pneumoniae isolates (n=104); assay: MIC distribution and MIC90, clinical K. pneumoniae isolates; format: cell-based; settings: Klebsiella pneumoniae; n=104, isolates from Spain, Poland, Denmark and Wales
Experimental: as §1
Minimum inhibitory concentration (MIC) determination. Broth microdilution and agar dilution MIC assays were conducted according to CLSI guidelines (M07-2012). Appropriate inoculation suspension density was assessed using a Sensititre Nephelometer with a Sensititre 0.5 […]
McFarland Standard. […]
To determine the […]
genotype of MDR strains from the ENABLE strain collection, de novo assembled contigs were analyzed using ResFinder (12–14) […]
MIC distribution versus E. coli (n=111)
Clinical Isolates from Spain, Poland, Denmark and Wales
Figure S4. MIC distribution and MIC90 versus clinical E. coli isolates
MIC distribution versus K. pneumoniae (n=104)
Figure S5. MIC distribution and MIC90 versus clinical K. pneumoniae isolates […]

[4] = read-out: MIC A. baumanii BM4454
[5] = read-out: MIC A. baumanii BM4652
[6] = blood, read-out: ED50, blood, E. coli
[7] = peritoneal fluid, read-out: ED50, peritoneal fluid, E. coli

Compound: Cc1cc(C#N)nc(N2CCN(S(=O)(=O)c3ccc(NC(=O)c4cc(CNCCCN)ccc4N(C)S(C)(=O)=O)cc3)CC2)n1.Cl.Cl [EBL-3599]
- MIC [1, 4]: > 64 µg/mL
- MIC [1, 5]: 32 µg/mL
- ED50 [2, 6]: 20 mg/kg
- ED50 [2, 7]: 29.6 mg/kg
- 1-log effective dose, blood, E. coli ([2]; blood): 28.3 mg/kg
- 2-log effective dose, blood, E. coli ([2]; blood): 42.8 mg/kg
- 3-log effective dose, blood, E. coli ([2]; blood): 63.4 mg/kg
- 1-log effective dose, peritoneal fluid, E. coli ([2]; peritoneal fluid): 45.9 mg/kg
- 2-log effective dose, peritoneal fluid, E. coli ([2]; peritoneal fluid): 70.0 mg/kg
- MIC (K. pneumoniae ATCC 13883): 0.5 µg/mL
- Factor of decrease in inhibitory effect on PaLpxH compared to EcLpxH (PaLpxH): > 10
- MIC90 [3]: 8 µg/mL

Compound: Cc1cc(C#N)nc(N2CCN(S(=O)(=O)c3ccc(NC(=O)c4cc(CN5CC(CN)C5)ccc4N(C)S(C)(=O)=O)cc3)CC2)n1 [EBL-3647]
- MIC [1, 4]: > 64 µg/mL
- MIC [1, 5]: 64 µg/mL (≈ 95.8 µM)
- ED50 [2, 6]: 12.3 mg/kg
- ED50 [2, 7]: 13.6 mg/kg
- 1-log effective dose, blood, E. coli ([2]; blood): 14.5 mg/kg
- 2-log effective dose, blood, E. coli ([2]; blood): 19.6 mg/kg
- 3-log effective dose, blood, E. coli ([2]; blood): 27.6 mg/kg
- 1-log effective dose, peritoneal fluid, E. coli ([2]; peritoneal fluid): 20.8 mg/kg
- 2-log effective dose, peritoneal fluid, E. coli ([2]; peritoneal fluid): 31.2 mg/kg
- MIC (K. pneumoniae ATCC 13883): 0.5 µg/mL (≈ 0.749 µM)
- Factor of decrease in inhibitory effect on PaLpxH compared to EcLpxH (PaLpxH): > 10
- MIC90 [3]: 8 µg/mL (≈ 12 µM)
